Like-named read-outs stand apart in the source and are kept apart here.
Legend:
[1] = system: human acute myelogenous leukemia cell line HL-60; test: Ability to induce differentiation of HL-60 cells (oxygen radical production after phorbol ester stimulation, WST-1); type: cell-based; details: 72 hours incubation, then WST-1 and phorbol 12,13-didecanoate for 4 hours, absorbance at 450, read-out: EC50 (50%-maximal effect concentration), induction of HL-60 differentiation
Excerpt: It has been known that human acute myelogenous leukemia cell line HL-60 is differentiated into a neutrophil-like cell by active form of vitamin D. Thus, the cells after the differentiation begin to express a surface marker such as CD11 and CD32 and, at the same time, they produce oxygen radical by stimulation with a phorbol ester. In this test, the above-mentioned property was utilized to assess an ability to induce the differentiation of HL-60 cell of the compounds of the present invention mentioned in the Examples and maxacalcitol using as an indicator the amount of oxygen radical produced by stimulation with a phorbol ester whereby a vitamin D3 activity was compared and investigated. When commercially available reagents and kits were used, they were used according to the indications attached thereto.
(Procedure) HL-60 cells (supplied from ATCC) were seeded on a 96-well plate at 5×10^3 cells/100 μL/well and a test compound in two-fold dilution series from 10^−7 M was added to the second to the twelfth rows (maximum concentration: the second row). The first row was used for blank. Maxacalcitol was added to lines A and B and the compound of the present invention was added to lines C and D. After incubation for 72 hours under a moisturized condition in the presence of 5% CO2 at 37° C. using a CO2 incubator, 101 μL of PBS containing 50 mM WST-1 (manufactured by Takara Bio) and 10 μM phorbol 12,13-didecanoate (manufactured by Sigma) were added to each well followed by incubating for 4 hours more. Absorbance (reference wavelength: 655 nM) at 450 nM of a WST-1 formazan dye generated by conversion from WST-1 by oxygen radical produced from the differentiated HL-60 cells was measured by a Benchmark microplate reader (manufactured by BioRad). An absorbance meter control software MPM 3 (manufactured by BioRad) was used and, from a concentration-absorbance curve, the 50%-maximal effect concentration (hereinafter, referred to as “EC50”) of each was determined by a logistic curve regression.

[2] = Metabolic rate in human liver microsome; type: in vitro ADME; details: pooled human liver microsome, 1 mg/mL protein, NADPH production system, pH 7.4, 37° C., HPLC
Description: Metabolic rates of the compounds of the present invention mentioned in Examples and maxacalcitol in human liver microsome were compared and investigated.
As to the pooled human liver microsome (HHM-0323), those manufactured by Tissue Transformation Technologies were used. A 0.25M potassium phosphate buffer (pH 7.4) (200 μL), 5 μL of a 250 μM solution of each compound to be tested in DMSO, 50 μL of an NADPH production system (where 20 mg of (β-NADP^+, 70 mg of glucose-6-phosphate, 40 units of glucose-6-phosphate dehydrogenase and 20 mg of magnesium chloride were dissolved in 1 mL of distilled water) and 220 μL of distilled water were added to a microtube and the mixture was subjected to a preincubation for 5 minutes at 37° C. Reaction was started by addition of 25 μL of human liver microsome (final concentration of protein: 1 mg/mL). Incubation was performed for 2, 10, 30 or 60 minutes and the reaction was stopped by addition of 500 μL of acetonitrile. After centrifugation at 13,000 rpm for 5 minutes, each test compound in the supernatant (25 μL) was measured by an HPLC under the following conditions.
Inertsil ODS-3 (4.6×150 mm; GL Science) was used as a column. With regard to mobile phase, a solution A (acetonitrile/0.1% aqueous solution of ammonium acetate=10/90) and a solution B (acetonitrile/0.1% aqueous solution of ammonium acetate=90/10) were used under the linear gradient conditions mentioned in Table 4. Column temperature, flow rate and wavelength for detection were set at 40° C., 1.0 mL/min. and UV 270 nm, respectively.
From the result of measurement by the above-mentioned HPLC, metabolic rates of the test compounds were calculated.

[3] = Action to raise the urinary excretion of calcium (1), repeated percutaneous administration; type: in vivo, rat; details: male SD rats, percutaneous 0.33, 3.3 and 33 μg/kg/day once daily for three days, urine collected every 24 hours, compared with control
Description: Open triangles show a control; open squares show the case where 0.33 μg/kg of the compound of Example 1 was administered; open rhombuses show the case where 3.3 μg/kg of the compound of Example 1 was administered; open circles show the case where 33 μg/kg of the compound of Example 1 was administered; black squares show the case where 0.33 μg/kg of maxacalcitol was administered; black rhombuses show the case where 3.3 μg/kg of maxacalcitol was administered; and black circles show the case where 33 μg/kg of maxacalcitol was administered.
A solution of the compound of the present invention mentioned in Example 1 or maxacalcitol in ethanol containing 0.3% of DMSO was repeatedly subjected to a percutaneous administration (0.33, 3.3 and 33 μg/200 μl/kg/day) for three days once daily onto the back of male rats (7 weeks of age) of the SD strain. An ethanol solution containing 0.3% of DMSO was administered to a control group. Calcium concentration in urine collected every 24 hours after administration on each day was measured and multiplied by the amount of urine to calculate the urinary excretion of calcium.

[4] = Action to raise calcium concentration in serum, repeated percutaneous administration; type: in vivo, rat; details: male SD rats, percutaneous 33 μg/200 μL/kg/day once daily for seven days, blood 24 hours after final administration
Description: A solution of the compound of the present invention mentioned in Example 1 or maxacalcitol in ethanol containing 0.3% of DMSO was repeatedly subjected to a percutaneous administration (33 μg/200 μL/kg/day) for seven days once daily onto the back of male rats (7 weeks of age) of the SD strain. An ethanol solution containing 0.3% of DMSO was administered to a control group. At 24 hours after the final administration, blood was collected and calcium concentration in serum was measured.

[5] = Action to raise the urinary excretion of calcium (2), intravenous administration; type: in vivo, rat; details: male SD rats, intravenous 22.4 nmol/kg; for Urinary excretion of calcium: urine collected during 24 hours after administration; for Ratio of urinary excretion of calcium (to Control): urine collected during 24 hours, relative to control group
Description: The compound of the present invention mentioned in Examples 3 or 8, or maxacalcitol (22.4 nmol/kg) was subjected to an intravenous administration to male rats (7 weeks of age) of the SD strain. A physiological saline containing 0.1% of Triton X 100 was administered to a control group. Calcium concentration in urine collected during 24 hours after the administration was measured and urinary excretion of calcium ([calcium concentration in urine]×[amount of urine]) and ratio of urinary excretion of calcium based on the control group ([calcium amount in urine upon administration of the compound to be tested]/[calcium amount in urine in the control group]) were calculated.

In the case of `C=C1C(=CC=C2CCCC3(C)C2CCC3C(C)OC(=O)CC(C)(O)C(F)(F)F)CC(O)CC1O` [Compound of Example 4, (1S,3R,20S)-20-(4,4,4-Trifluoro-3-hydroxy-3-methylbutanoyloxy)-9,10-secopregna-5Z,7E,10(19)-trien-1,3-diol], the EC50 [1] is reported as 0.21 nM.
For `C=C1C(=CC=C2CCCC3(C)C2CCC3C(C)OC(=O)CCC(O)(CC)CC)CC(O)CC1O` [Compound of Example 13, (1S,3R,20S)-20-(4-Ethyl-4-hydroxyhexanoyloxy)-9,10-secopregna-5Z,7E,10(19)-trien-1,3-diol], the “Metabolic Rate” value [2] was 38 pmol/min/mg and the EC50 [1] was 2.3 nM.
In the case of `C=C1/C(=C\C=C2/CCC[C@]3(C)[C@@H]([C@H](C)OC(=O)CCC(C)(C)O)CC[C@@H]23)C[C@@H](O)C[C@@H]1O` [Compound of Example 1, (1S,3R,20S)-20-(4-Hydroxy-4-methyl-pentanoyloxy)-9,10-secopregna-5Z,7E,10(19)-trien-1,3-diol], the “Urinary excretion of calcium (FIG. 1)” value [3] is reported as “no significant increase in urinary excretion of calcium”, the “Metabolic Rate” value [2] is reported as 78 pmol/min/mg and the “Calcium Concentration in Serum” value [4] is reported as 11.8 mg/dL. For the same compound, the EC50 [1] was 2 nM.
Compound `C=C1C(=CC=C2CCCC3(C)C2CCC3C(C)OC(=O)CC(=O)C(O)(CC)CC)CC(O)CC1O` [Compound of Example 28, (1S,3R,20S)-20-(4-Ethyl-4-hydroxy-3-oxo-hexanoyloxy)-9,10-secopregna-5Z,7E,10(19)-trien-1,3-diol] has an EC50 [1] of 2.5 nM.
For `C=C1C(=CC=C2CCCC3(C)C2CCC3C(C)OC(=O)CCCC(C)(C)O)CC(O)CC1O` [Compound of Example 3, (1S,3R,20S)-20-(5-Hydroxy-5-methylhexanoyloxy)-9,10-secopregna-5Z,7E,10(19)-trien-1,3-diol], the “Metabolic Rate” value [2] was 22 pmol/min/mg, the “Urinary excretion of calcium” value [5] was 0.66 mg and the “Ratio of urinary excretion of calcium (to Control)” value (“Ratio … of calcium (to Control)” for short) [5] was 93%. The EC50 [1] was 2.6 nM.
In the case of `C=C1C(=CC=C2CCCC3(C)C2CCC3C(C)OC(=O)CC(O)(C(F)(F)F)C(F)(F)F)CC(O)CC1O` [Compound of Example 7, (1S,3R,20S)-20-[4,4,4-Trifluoro-3-hydroxy-3-(trifluoromethyl)butanoyloxy]-9,10-secopregna-5Z,7E,10(19)-trien-1,3-diol], the EC50 [1] is reported as 0.44 nM.
For `C=C1C(=CC=C2CCCC3(C)C2CCC3C(C)OC(=O)CN(C)CC(C)(C)O)CC(O)CC1O` [Compound of Example 19, (1S,3R,20S)-20-[N-(2-Hydroxy-2-methylpropyl)-N-methyl-2-aminoacetyloxy]-9,10-secopregna-5Z,7E,10(19)-trien-1,3-diol], the EC50 [1] was 4 nM.
Work on `C=C1C(=CC=C2CCCC3(C)C2CCC3C(C)OC(=O)CC(=O)C(C)(C)O)CC(O)CC1O` [Compound of Example 27, (1S,3R,20S)-20-(4-Hydroxy-4-methyl-3-oxo-pentanoyloxy)-9,10-secopregna-5Z,7E,10(19)-trien-1,3-diol] yielded an EC50 [1] of 3 nM.
`C=C1C(=CC=C2CCCC3(C)C2CCC3C(C)OC(=O)CC(O)C(C)C)CC(O)CC1O` [Compound of Example 5, (1S,3R,20S)-20-(3-Hydroxy-4-methylpentanoyloxy)-9,10-secopregna-5Z,7E,10(19)-trien-1,3-diol] gave an EC50 [1] of 1.1 nM.
With `C=C1/C(=C\C=C2/CCC[C@]3(C)[C@@H]([C@H](C)OCCC(C)(C)O)CC[C@@H]23)C[C@@H](O)C[C@@H]1O` [Maxacalcitol, (1S,3R,20S)-20-(3-hydroxy-3-methylbutyl-oxy)-9,10-secopregna-5Z,7E,10(19)-trien-1,3-diol, reference compound] the “Urinary excretion of calcium (FIG. 1)” value [3] was “increased in a dose-dependent manner”, the “Metabolic Rate” value [2] was 10 pmol/min/mg and the “Urinary excretion of calcium” value [5] was 1.5 mg. The “Ratio … of calcium (to Control)” value [5] was 211%, the “Calcium Concentration in Serum” value [4] was 15.0 mg/dL and the EC50 ([1]; Homo sapiens) was 5.4 nM.
Work on `C=C1C(=CC=C2CCCC3(C)C2CCC3C(C)OC(=O)CC(CC)C(C)O)CC(O)CC1O` [Compound of Example 12, (1S,3R,20S)-20-(3-Ethyl-4-hydroxypentanoyloxy)-9,10-secopregna-5Z,7E,10(19)-trien-1,3-diol] yielded an EC50 [1] of 4.2 nM.
In the case of `C=C1/C(=C\C=C2/CCC[C@]3(C)[C@@H]([C@H](C)OC(=O)/C=C/C(C)(C)O)CC[C@@H]23)C[C@@H](O)C[C@@H]1O` [Compound of Example 8, (1S,3R,20S)-20-[(2E)-4-Hydroxy-4-methylpent-2-enoyloxy]-9,10-secopregna-5Z,7E,10(19)-trien-1,3-diol], the “Metabolic Rate” value [2] is reported as 38 pmol/min/mg, the “Urinary excretion of calcium” value [5] is reported as 0.89 mg and the “Ratio … of calcium (to Control)” value [5] is reported as 125%. The EC50 [1] was 3.1 nM.
With “(1S,3R,20S)-20-(5-Hydroxy-5-methylheptanoyloxy)-9,10-secopregna-5Z,7E,10(19)-trien-1,3-diol [Compound of Example 11]” the “Metabolic Rate” value [2] was 23 pmol/min/mg and the EC50 [1] was 4.3 nM.
With `C=C1C(=CC=C2CCCC3(C)C2CCC3C(C)OC(=O)CCC2(O)CCCC2)CC(O)CC1O` [Compound of Example 20, (1S,3R,20S)-20-[3-(1-Hydroxycyclopentyl)propanoyloxy]-9,10-secopregna-5Z,7E,10(19)-trien-1,3-diol] the “Metabolic Rate” value [2] was 39 pmol/min/mg and the EC50 [1] was 1.7 nM.
With `C=C1C(=CC=C2CCCC3(C)C2CCC3C(C)OC(=O)C=CC(O)(CC)CC)CC(O)CC1O` [Compound of Example 10, (1S,3R,20S)-20-[(2E)-4-Ethyl-4-hydroxyhex-2-enoyloxy]-9,10-secopregna-5Z,7E,10(19)-trien-1,3-diol] the “Metabolic Rate” value [2] was 58 pmol/min/mg and the EC50 [1] was 1.2 nM.

From US20100130454A1, “9,10-SECOPREGNANE DERIVATIVES AND MEDICINE” (NIPPON SHINYAKU CO., LTD., priority 2004, published 2010)
